From US20070270418A1, “Inhibitors of P38 and Methods of Using the Same” (priority 2003, published 2007)

Tested on: TNFα release from THP-1 cells
Assay: TNFα release from LPS-stimulated THP-1 cells
Type: cell-based
Settings: Homo sapiens, THP-1, 18 h, LPS 10 μg/ml, 18 hours; read-out: TNFα (THP-1) IC50
Outline: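 THP-1 cells (10^6 cells/ml on resuspension) preincubated with compound 30 min at 37°C, 5% CO2, final DMSO ≤0.5%, then stimulated with 10 μg/ml LPS for 18 h (TNFα). Supernatants collected for TNFα analysis.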

Compound	IC50 [nM]
CN1[C@@H]2CC[C@H]1C[C@@H](Nc1nccc(-c3c(-c4ccc(F)cc4)nc4occn34)n1)C2 [CCLXXXI]	3.64
Fc1ccc(-c2nc3occn3c2-c2ccnc(NC3CCNCC3)n2)cc1 [CCLXXX]	7.89

Target: T1, CDK2/cyclinA (Homo sapiens, UniProt P24941)
T1 construct: purchased Upstate (Charlottesville, Va.)
Assay: Broad selectivity panel, 32P incorporation
Type: biochemical
Settings: 0.1 μM compound, 40 μM ATP; read-out: Percent inhibition CDK2/cyclinA
Experimental: (§1) Various compounds of the present invention are screened against a panel of 24 additional kinases (Upstate, Charlottesville, Va.). Compounds are tested 0.1 μM and 1 μM in reactions containing 40 μM ATP. Incorporation of radiolabeled phosphate (^32P) into each kinase substrate is measured in the presence and absence of test compound. Results are reported as the percent decrease in the amount of ^32P incorporated into the substrate in the presence of compound, compared to buffer control.

Compound	inhibition at 0.1 µM [%]
CN1[C@@H]2CC[C@H]1C[C@@H](Nc1nccc(-c3c(-c4ccc(F)cc4)nc4occn34)n1)C2 [CCLXXXI]	-2
Fc1ccc(-c2nc3occn3c2-c2ccnc(NC3CCNCC3)n2)cc1 [CCLXXX]	3

Same assay, conditions: 1 μM compound, 40 μM ATP; read-out: Percent inhibition CDK2/cyclinA

Compound	inhibition at 1 µM [%]
CN1[C@@H]2CC[C@H]1C[C@@H](Nc1nccc(-c3c(-c4ccc(F)cc4)nc4occn34)n1)C2 [CCLXXXI]	5
Fc1ccc(-c2nc3occn3c2-c2ccnc(NC3CCNCC3)n2)cc1 [CCLXXX]	19

Target: T2, CK2 (Homo sapiens, UniProt P68400)
T2 construct: purchased Upstate (Charlottesville, Va.)
Assay: Broad selectivity panel, 32P incorporation
Type: biochemical
Settings: 0.1 μM compound, 40 μM ATP; read-out: Percent inhibition CK2
Experimental: as §1

T2 sequence (P68400 whole entry): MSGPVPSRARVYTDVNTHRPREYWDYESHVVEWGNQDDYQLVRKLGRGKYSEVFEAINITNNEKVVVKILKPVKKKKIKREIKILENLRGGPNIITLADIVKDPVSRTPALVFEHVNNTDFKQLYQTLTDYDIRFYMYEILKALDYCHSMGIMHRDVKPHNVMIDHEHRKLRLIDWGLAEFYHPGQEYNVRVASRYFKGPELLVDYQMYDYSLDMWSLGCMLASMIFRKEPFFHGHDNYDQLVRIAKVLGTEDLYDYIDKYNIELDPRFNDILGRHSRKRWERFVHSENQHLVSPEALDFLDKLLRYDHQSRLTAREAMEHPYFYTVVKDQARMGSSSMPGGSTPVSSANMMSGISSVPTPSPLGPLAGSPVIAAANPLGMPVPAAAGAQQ
T2 sequence (P67870 whole entry partner): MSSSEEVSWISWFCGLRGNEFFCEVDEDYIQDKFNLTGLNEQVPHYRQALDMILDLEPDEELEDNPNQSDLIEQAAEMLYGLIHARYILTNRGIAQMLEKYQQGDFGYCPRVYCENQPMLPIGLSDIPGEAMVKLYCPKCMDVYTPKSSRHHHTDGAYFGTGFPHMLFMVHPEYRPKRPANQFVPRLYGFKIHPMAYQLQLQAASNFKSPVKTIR

Compound	inhibition at 0.1 µM [%]
CN1[C@@H]2CC[C@H]1C[C@@H](Nc1nccc(-c3c(-c4ccc(F)cc4)nc4occn34)n1)C2 [CCLXXXI]	6
Fc1ccc(-c2nc3occn3c2-c2ccnc(NC3CCNCC3)n2)cc1 [CCLXXX]	10

Same assay, conditions: 1 μM compound, 40 μM ATP; read-out: Percent inhibition CK2

Compound	inhibition at 1 µM [%]
CN1[C@@H]2CC[C@H]1C[C@@H](Nc1nccc(-c3c(-c4ccc(F)cc4)nc4occn34)n1)C2 [CCLXXXI]	16
Fc1ccc(-c2nc3occn3c2-c2ccnc(NC3CCNCC3)n2)cc1 [CCLXXX]	32

Target: T3, GSK3β (Homo sapiens, UniProt P49841)
T3 construct: purchased Upstate (Charlottesville, Va.)
Assay: Broad selectivity panel, 32P incorporation
Type: biochemical
Settings: 0.1 μM compound, 40 μM ATP; read-out: Percent inhibition GSK3β
Experimental: as §1

T3 sequence (P49841 whole entry, species assumed): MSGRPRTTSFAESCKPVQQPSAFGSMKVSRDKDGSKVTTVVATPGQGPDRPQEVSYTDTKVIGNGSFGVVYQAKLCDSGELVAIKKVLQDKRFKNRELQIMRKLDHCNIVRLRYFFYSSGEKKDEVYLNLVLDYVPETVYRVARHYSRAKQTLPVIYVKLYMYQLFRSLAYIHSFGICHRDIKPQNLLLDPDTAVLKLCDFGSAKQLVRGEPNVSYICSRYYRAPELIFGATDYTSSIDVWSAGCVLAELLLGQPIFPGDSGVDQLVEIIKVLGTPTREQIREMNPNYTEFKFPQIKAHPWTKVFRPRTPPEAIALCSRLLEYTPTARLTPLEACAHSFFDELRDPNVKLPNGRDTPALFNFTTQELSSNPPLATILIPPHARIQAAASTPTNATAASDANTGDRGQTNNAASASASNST

Compound	inhibition at 0.1 µM [%]
CN1[C@@H]2CC[C@H]1C[C@@H](Nc1nccc(-c3c(-c4ccc(F)cc4)nc4occn34)n1)C2 [CCLXXXI]	6
Fc1ccc(-c2nc3occn3c2-c2ccnc(NC3CCNCC3)n2)cc1 [CCLXXX]	5

Same assay, conditions: 1 μM compound, 40 μM ATP; read-out: Percent inhibition GSK3β

Compound	inhibition at 1 µM [%]
CN1[C@@H]2CC[C@H]1C[C@@H](Nc1nccc(-c3c(-c4ccc(F)cc4)nc4occn34)n1)C2 [CCLXXXI]	19
Fc1ccc(-c2nc3occn3c2-c2ccnc(NC3CCNCC3)n2)cc1 [CCLXXX]	14

Target: T4, JNK1α1 (Homo sapiens, UniProt P45983)
T4 construct: purchased Upstate (Charlottesville, Va.)
Assay: Broad selectivity panel, 32P incorporation
Type: biochemical
Settings: 0.1 μM compound, 40 μM ATP; read-out: Percent inhibition JNK1α1
Experimental: as §1

T4 sequence (P45983 1-384 isoform P45983-2, species assumed): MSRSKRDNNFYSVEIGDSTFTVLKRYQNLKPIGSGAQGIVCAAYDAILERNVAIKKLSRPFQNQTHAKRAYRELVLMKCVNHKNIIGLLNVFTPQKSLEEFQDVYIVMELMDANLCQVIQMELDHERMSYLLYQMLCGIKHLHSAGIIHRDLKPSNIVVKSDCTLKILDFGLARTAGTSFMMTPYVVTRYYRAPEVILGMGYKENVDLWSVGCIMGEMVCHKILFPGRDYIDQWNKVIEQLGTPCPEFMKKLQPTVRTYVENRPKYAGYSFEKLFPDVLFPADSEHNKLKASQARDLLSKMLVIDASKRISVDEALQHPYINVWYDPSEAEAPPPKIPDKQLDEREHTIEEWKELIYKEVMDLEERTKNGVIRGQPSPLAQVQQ

Compound	inhibition at 0.1 µM [%]
CN1[C@@H]2CC[C@H]1C[C@@H](Nc1nccc(-c3c(-c4ccc(F)cc4)nc4occn34)n1)C2 [CCLXXXI]	-13
Fc1ccc(-c2nc3occn3c2-c2ccnc(NC3CCNCC3)n2)cc1 [CCLXXX]	-26

Same assay, conditions: 1 μM compound, 40 μM ATP; read-out: Percent inhibition JNK1α1

Compound	inhibition at 1 µM [%]
CN1[C@@H]2CC[C@H]1C[C@@H](Nc1nccc(-c3c(-c4ccc(F)cc4)nc4occn34)n1)C2 [CCLXXXI]	6
Fc1ccc(-c2nc3occn3c2-c2ccnc(NC3CCNCC3)n2)cc1 [CCLXXX]	18

Target: T5, MAPK2 (Homo sapiens, UniProt P28482)
T5 construct: purchased Upstate (Charlottesville, Va.)
Assay: Broad selectivity panel, 32P incorporation
Type: biochemical
Settings: 0.1 μM compound, 40 μM ATP; read-out: Percent inhibition MAPK2
Experimental: as §1

T5 sequence (P28482 whole entry): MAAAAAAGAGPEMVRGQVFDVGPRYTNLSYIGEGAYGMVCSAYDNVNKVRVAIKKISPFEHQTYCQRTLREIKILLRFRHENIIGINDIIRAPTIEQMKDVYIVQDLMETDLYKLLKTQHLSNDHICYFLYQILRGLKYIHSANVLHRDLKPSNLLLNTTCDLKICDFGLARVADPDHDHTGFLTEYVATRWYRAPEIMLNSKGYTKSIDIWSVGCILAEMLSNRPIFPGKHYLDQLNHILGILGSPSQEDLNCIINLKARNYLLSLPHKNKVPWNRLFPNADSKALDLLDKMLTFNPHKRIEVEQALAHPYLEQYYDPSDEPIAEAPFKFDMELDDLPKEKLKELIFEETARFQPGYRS

Compound	inhibition at 0.1 µM [%]
CN1[C@@H]2CC[C@H]1C[C@@H](Nc1nccc(-c3c(-c4ccc(F)cc4)nc4occn34)n1)C2 [CCLXXXI]	10
Fc1ccc(-c2nc3occn3c2-c2ccnc(NC3CCNCC3)n2)cc1 [CCLXXX]	-9

Same assay, conditions: 1 μM compound, 40 μM ATP; read-out: Percent inhibition MAPK2

Compound	inhibition at 1 µM [%]
CN1[C@@H]2CC[C@H]1C[C@@H](Nc1nccc(-c3c(-c4ccc(F)cc4)nc4occn34)n1)C2 [CCLXXXI]	23
Fc1ccc(-c2nc3occn3c2-c2ccnc(NC3CCNCC3)n2)cc1 [CCLXXX]	9

Target: T6, MEK1 (Homo sapiens, UniProt Q02750)
T6 construct: purchased Upstate (Charlottesville, Va.)
Assay: Broad selectivity panel, 32P incorporation
Type: biochemical
Settings: 0.1 μM compound, 40 μM ATP; read-out: Percent inhibition MEK1
Experimental: as §1

T6 sequence (Q02750 whole entry, species assumed): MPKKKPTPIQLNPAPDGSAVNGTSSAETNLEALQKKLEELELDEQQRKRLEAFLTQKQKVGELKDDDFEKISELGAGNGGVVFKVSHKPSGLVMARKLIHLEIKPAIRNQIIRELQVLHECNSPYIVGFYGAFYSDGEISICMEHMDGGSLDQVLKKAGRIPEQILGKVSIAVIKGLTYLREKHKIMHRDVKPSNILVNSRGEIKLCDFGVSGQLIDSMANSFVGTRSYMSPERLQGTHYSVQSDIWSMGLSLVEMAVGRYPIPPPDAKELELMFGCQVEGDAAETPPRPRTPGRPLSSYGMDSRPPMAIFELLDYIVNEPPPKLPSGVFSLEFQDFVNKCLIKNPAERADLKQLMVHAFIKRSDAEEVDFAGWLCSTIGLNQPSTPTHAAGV

Compound	inhibition at 0.1 µM [%]
CN1[C@@H]2CC[C@H]1C[C@@H](Nc1nccc(-c3c(-c4ccc(F)cc4)nc4occn34)n1)C2 [CCLXXXI]	-3
Fc1ccc(-c2nc3occn3c2-c2ccnc(NC3CCNCC3)n2)cc1 [CCLXXX]	9

Same assay, conditions: 1 μM compound, 40 μM ATP; read-out: Percent inhibition MEK1

Compound	inhibition at 1 µM [%]
CN1[C@@H]2CC[C@H]1C[C@@H](Nc1nccc(-c3c(-c4ccc(F)cc4)nc4occn34)n1)C2 [CCLXXXI]	7
Fc1ccc(-c2nc3occn3c2-c2ccnc(NC3CCNCC3)n2)cc1 [CCLXXX]	13

Target: T7, MKK6 (Homo sapiens, UniProt P52564)
T7 construct: purchased Upstate (Charlottesville, Va.)
T7 sequence (P52564 1-334): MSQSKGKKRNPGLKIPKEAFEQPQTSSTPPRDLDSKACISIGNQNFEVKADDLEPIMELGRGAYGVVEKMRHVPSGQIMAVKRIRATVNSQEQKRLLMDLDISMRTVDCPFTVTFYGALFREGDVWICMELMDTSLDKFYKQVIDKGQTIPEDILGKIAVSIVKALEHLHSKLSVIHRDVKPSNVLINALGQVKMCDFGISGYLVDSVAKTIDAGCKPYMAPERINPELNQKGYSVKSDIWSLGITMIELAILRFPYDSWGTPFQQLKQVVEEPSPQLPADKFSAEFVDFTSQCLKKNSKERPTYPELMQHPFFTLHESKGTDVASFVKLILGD
Assay: Broad selectivity panel, 32P incorporation
Type: biochemical
Settings: 0.1 μM compound, 40 μM ATP; read-out: Percent inhibition MKK6
Experimental: as §1

Compound	inhibition at 0.1 µM [%]
CN1[C@@H]2CC[C@H]1C[C@@H](Nc1nccc(-c3c(-c4ccc(F)cc4)nc4occn34)n1)C2 [CCLXXXI]	19
Fc1ccc(-c2nc3occn3c2-c2ccnc(NC3CCNCC3)n2)cc1 [CCLXXX]	0

Same assay, conditions: 1 μM compound, 40 μM ATP; read-out: Percent inhibition MKK6

Compound	inhibition at 1 µM [%]
CN1[C@@H]2CC[C@H]1C[C@@H](Nc1nccc(-c3c(-c4ccc(F)cc4)nc4occn34)n1)C2 [CCLXXXI]	76
Fc1ccc(-c2nc3occn3c2-c2ccnc(NC3CCNCC3)n2)cc1 [CCLXXX]	62

Target: T8, PDGFR α (Homo sapiens, UniProt P16234)
T8 construct: purchased Upstate (Charlottesville, Va.)
Assay: Broad selectivity panel, 32P incorporation
Type: biochemical
Settings: 0.1 μM compound, 40 μM ATP; read-out: Percent inhibition PDGFR α
Experimental: as §1

T8 sequence (P16234 24-1089, species assumed): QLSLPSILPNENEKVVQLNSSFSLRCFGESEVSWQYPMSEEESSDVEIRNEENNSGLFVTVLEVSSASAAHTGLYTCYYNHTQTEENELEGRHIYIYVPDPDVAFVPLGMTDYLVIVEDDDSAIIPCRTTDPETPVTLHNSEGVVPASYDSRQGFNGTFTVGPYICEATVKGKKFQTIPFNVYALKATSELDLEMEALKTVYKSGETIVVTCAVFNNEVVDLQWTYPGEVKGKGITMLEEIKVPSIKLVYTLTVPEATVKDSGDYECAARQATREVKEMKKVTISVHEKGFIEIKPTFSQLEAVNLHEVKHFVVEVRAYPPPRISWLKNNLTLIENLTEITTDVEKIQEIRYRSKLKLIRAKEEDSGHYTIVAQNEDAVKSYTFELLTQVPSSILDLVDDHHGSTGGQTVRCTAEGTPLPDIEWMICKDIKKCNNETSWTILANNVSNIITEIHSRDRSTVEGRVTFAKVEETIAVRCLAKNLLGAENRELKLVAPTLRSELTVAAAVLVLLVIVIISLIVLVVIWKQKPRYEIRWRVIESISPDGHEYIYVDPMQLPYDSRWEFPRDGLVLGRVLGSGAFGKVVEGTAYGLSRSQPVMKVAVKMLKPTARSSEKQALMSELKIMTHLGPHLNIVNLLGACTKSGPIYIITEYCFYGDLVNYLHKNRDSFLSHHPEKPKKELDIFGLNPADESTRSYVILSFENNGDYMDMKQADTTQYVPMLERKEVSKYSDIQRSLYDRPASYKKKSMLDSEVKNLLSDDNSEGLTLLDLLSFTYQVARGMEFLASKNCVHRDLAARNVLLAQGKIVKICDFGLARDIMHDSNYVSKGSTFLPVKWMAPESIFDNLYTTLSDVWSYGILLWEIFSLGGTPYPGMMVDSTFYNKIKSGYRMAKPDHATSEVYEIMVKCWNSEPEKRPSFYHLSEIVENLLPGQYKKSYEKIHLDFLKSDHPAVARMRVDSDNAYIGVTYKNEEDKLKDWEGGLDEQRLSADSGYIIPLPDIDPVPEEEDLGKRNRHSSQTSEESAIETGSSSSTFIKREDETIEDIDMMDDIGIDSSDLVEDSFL

Compound	inhibition at 0.1 µM [%]
CN1[C@@H]2CC[C@H]1C[C@@H](Nc1nccc(-c3c(-c4ccc(F)cc4)nc4occn34)n1)C2 [CCLXXXI]	11
Fc1ccc(-c2nc3occn3c2-c2ccnc(NC3CCNCC3)n2)cc1 [CCLXXX]	1

Same assay, conditions: 1 μM compound, 40 μM ATP; read-out: Percent inhibition PDGFR α

Compound	inhibition at 1 µM [%]
CN1[C@@H]2CC[C@H]1C[C@@H](Nc1nccc(-c3c(-c4ccc(F)cc4)nc4occn34)n1)C2 [CCLXXXI]	21
Fc1ccc(-c2nc3occn3c2-c2ccnc(NC3CCNCC3)n2)cc1 [CCLXXX]	8

Target: T9, PKA (Homo sapiens, UniProt P17612)
T9 construct: purchased Upstate (Charlottesville, Va.)
Assay: Broad selectivity panel, 32P incorporation
Type: biochemical
Settings: 0.1 μM compound, 40 μM ATP; read-out: Percent inhibition PKA
Experimental: as §1

Compound	inhibition at 0.1 µM [%]
CN1[C@@H]2CC[C@H]1C[C@@H](Nc1nccc(-c3c(-c4ccc(F)cc4)nc4occn34)n1)C2 [CCLXXXI]	-11
Fc1ccc(-c2nc3occn3c2-c2ccnc(NC3CCNCC3)n2)cc1 [CCLXXX]	0

Same assay, conditions: 1 μM compound, 40 μM ATP; read-out: Percent inhibition PKA

Compound	inhibition at 1 µM [%]
CN1[C@@H]2CC[C@H]1C[C@@H](Nc1nccc(-c3c(-c4ccc(F)cc4)nc4occn34)n1)C2 [CCLXXXI]	-2
Fc1ccc(-c2nc3occn3c2-c2ccnc(NC3CCNCC3)n2)cc1 [CCLXXX]	11

Target: T10, SAPK4 (Homo sapiens, UniProt O15264)
T10 construct: purchased Upstate (Charlottesville, Va.)
T10 sequence (O15264 1-365): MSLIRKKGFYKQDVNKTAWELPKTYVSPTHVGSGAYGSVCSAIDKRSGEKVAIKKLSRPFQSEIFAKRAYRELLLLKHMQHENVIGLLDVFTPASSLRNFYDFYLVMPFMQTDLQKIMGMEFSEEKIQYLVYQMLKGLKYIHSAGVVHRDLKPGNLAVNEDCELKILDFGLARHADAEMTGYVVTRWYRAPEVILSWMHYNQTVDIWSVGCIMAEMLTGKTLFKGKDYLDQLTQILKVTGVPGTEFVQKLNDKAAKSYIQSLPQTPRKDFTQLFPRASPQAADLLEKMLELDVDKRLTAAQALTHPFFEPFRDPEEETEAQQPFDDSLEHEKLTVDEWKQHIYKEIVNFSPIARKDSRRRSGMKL
Assay: Broad selectivity panel, 32P incorporation
Type: biochemical
Settings: 0.1 μM compound, 40 μM ATP; read-out: Percent inhibition SAPK4
Experimental: as §1

Compound	inhibition at 0.1 µM [%]
CN1[C@@H]2CC[C@H]1C[C@@H](Nc1nccc(-c3c(-c4ccc(F)cc4)nc4occn34)n1)C2 [CCLXXXI]	2
Fc1ccc(-c2nc3occn3c2-c2ccnc(NC3CCNCC3)n2)cc1 [CCLXXX]	0

Same assay, conditions: 1 μM compound, 40 μM ATP; read-out: Percent inhibition SAPK4

Compound	inhibition at 1 µM [%]
CN1[C@@H]2CC[C@H]1C[C@@H](Nc1nccc(-c3c(-c4ccc(F)cc4)nc4occn34)n1)C2 [CCLXXXI]	7
Fc1ccc(-c2nc3occn3c2-c2ccnc(NC3CCNCC3)n2)cc1 [CCLXXX]	6
